Among the data in patent US20080261977A1, “Pyrimidine Derivatives as Cannabinoid Receptor Modulators” (priority 2004, published 2008) are EC50 and Emax values, retold here.

The target in this experiment is T1, human cannabinoid CB2 receptor (Homo sapiens, UniProt P34972).
T1 construct: expressed in transfected cells; host or cells: Saccharomyces cerevisiae strain MMY23 (cassette integrated at the ura3 locus; chimeric Gpa1/Gαi3)
In words: Cannabinoid CB2 receptor agonist activity, yeast (Saccharomyces cerevisiae) cells expressing the receptor, FDGlu fluorescence. Type of experiment: cell-based. Conditions: for Emax: read-out: efficacy (Emax relative to HU210) at the cloned human cannabinoid CB2 receptor. As to the method: The cannabinoid CB2 receptor agonist activity of the compounds of formula (I) was determined in accordance with the following experimental method.
Yeast (Saccharomyces cerevisiae) cells expressing the human cannabinoid CB2 receptor were generated by integration of an expression cassette into the ura3 chromosomal locus of yeast strain MMY23. This cassette consisted of DNA sequence encoding the human CB2 receptor flanked by the yeast GPD promoter to the 5′ end of CB2 and a yeast transcriptional terminator sequence to the 3′ end of CB2. MMY23 expresses a yeast/mammalian chimeric G-protein alpha subunit in which the C-terminal 5 amino acids of Gpa1 are replaced with the C-terminal 5 amino acids of human Gαi3 (as described in Brown et al. (2000), Yeast 16:11-22). Cells were grown at 30° C. in liquid Synthetic Complete (SC) yeast media (Guthrie and Fink (1991), Methods in Enzymology, Vol. 194) lacking uracil, tryptophan, adenine and leucine to late logarithmic phase (approximately 6 OD600/ml).
Agonists were prepared as 10 mM stocks in DMSO. EC50 values (the concentration required to produce 50% maximal response) were estimated using dilutions of between 3- and 5-fold (BiomekFX, Beckman) into DMSO. Agonist solutions in DMSO (1% final assay volume) were transferred into black, clear bottom, microtitre plates from NUNC (96- or 384-well). Cells were suspended at a density of 0.2 OD600/ml in SC media lacking histidine, uracil, tryptophan, adenine and leucine and supplemented with 10 mM 3-aminotriazole, 0.1M sodium phosphate pH 7.0, and […] fluorescein di-β-D-glucopyranoside (FDGlu). This mixture (50 ul per well for 384-well plates, 200 ul per well for 96-well plates) was added to agonist in the assay plates (Multidrop 384, Labsystems). After incubation at 30° C. for 24 hours, fluorescence resulting from degradation of FDGlu to fluorescein due to exoglucanase, an endogenous yeast enzyme produced during agonist-stimulated cell growth, was determined using a Spectrofluor microtitre plate reader (Tecan; excitation wavelength: 485 nm; emission wavelength: 535 nm). Fluorescence was plotted against compound concentration and iteratively curve fitted using a four parameter fit to generate a concentration effect value. Efficacy (Emax) was calculated from the equation
Emax=Max[compound X]−Min[compound X]/Max[HU210]−Min[HU210]×100%
where Max[compound X] and Min[compound X] are the fitted maximum and minimum respectively from the concentration effect curve for compound X, and Max[HU210] and Min[HU210] are the fitted maximum and minimum respectively from the concentration effect curve for (6aR,10aR)-3-1,1′-Dimethylheptyl)-6a,7,10,10a-tetrahydro-1-hydroxy-6,6-dimethyl-6H-dibenzo[b,d]pyran-9-methanol (HU210; available from Tocris). Equieffective molar ratio (EMR) values were calculated from the equation
Where EC50[compound X] is the EC50 of compound X and EC50[HU210] is the EC50 of HU210.

Setting [1] is: yeast agonist assay, read-out: EC50 at the cloned human cannabinoid CB2 receptor.

Broadly, the EC50 is the midpoint of the concentration-response curve. By Emax is commonly meant the maximal effect, on the per cent scale that the assay sets.

Structures can show the parent of a compound that is named as a salt. Where two headings read alike, the source gives them in different places.

T1 sequence (P34972 whole entry): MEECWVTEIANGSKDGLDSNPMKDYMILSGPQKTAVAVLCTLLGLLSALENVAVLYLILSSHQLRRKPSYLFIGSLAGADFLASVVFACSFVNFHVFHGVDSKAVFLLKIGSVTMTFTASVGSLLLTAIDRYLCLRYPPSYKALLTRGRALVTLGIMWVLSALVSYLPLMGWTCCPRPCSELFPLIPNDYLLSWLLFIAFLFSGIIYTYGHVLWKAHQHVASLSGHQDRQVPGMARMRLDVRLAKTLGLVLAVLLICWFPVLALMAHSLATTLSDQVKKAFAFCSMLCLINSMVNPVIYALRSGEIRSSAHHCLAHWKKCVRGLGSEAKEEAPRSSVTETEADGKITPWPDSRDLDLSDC

For `Clc1cccc(Nc2ncc(CNC3CCC3)c(C3CC3)n2)c1` [Example 1, (3-Chloro-phenyl)-(5-cyclobutylaminomethyl-4-cyclopropyl-pyrimidin-2-yl)-amine], under setting [1], the EC50 is less than 300 nM. Further, under “yeast agonist assay”, the maximal effect (Emax) was more than 50%.

As for `Clc1cccc(Nc2ncc(CNCC3CC3)c(C3CC3)n2)c1` [Example 3, (3-Chloro-phenyl)-{4-cyclopropyl-5-[(cyclopropylmethyl-amino)-methyl]-pyrimidin-2-yl}-amineacetate], the EC50 under setting [1] was less than 300 nM. The Emax (yeast agonist assay) was more than 50%.

`CC(C)CNCc1cnc(Nc2cccc(Cl)c2)nc1C1CC1` [Example 5, (3-Chloro-phenyl)-[4-cyclopropyl-5-(isobutylamino-methyl)-pyrimidin-2-yl]-amine]: the EC50 under setting [1] was less than 300 nM. The Emax (yeast agonist assay) was more than 50%.

Take `CC(C)c1nc(Nc2cccc(Cl)c2)ncc1CN1CCOCC1` [Example 6, (3-Chloro-phenyl)-(4-isopropyl-5-morpholin-4-ylmethyl-pyrimidin-2-yl)-amine]: under setting [1], the EC50 was less than 300 nM. Also, the Emax (yeast agonist assay) was more than 50%.

On to `CC(C)c1nc(Nc2cccc(Cl)c2)ncc1CNCC1CC1` [Example 7, (3-Chloro-phenyl)-{5-[(cyclopropylmethyl-amino)-methyl]-4-isopropyl-pyrimidin-2-yl}-amine hydrochloride], for which the concentration giving a half-maximal response (EC50) under setting [1] was less than 300 nM. Moreover, the maximal effect (Emax) (yeast agonist assay) was more than 50%.

On to `CC(C)c1nc(Nc2cccc(Cl)c2)ncc1CNCC1CCCC1` [Example 8, (3-Chloro-phenyl)-{5-[(cyclopentylmethyl-amino)-methyl]-4-isopropyl-pyrimidin-2-yl}-amine hydrochloride], for which, under setting [1], the EC50 was less than 300 nM. For the same molecule, the Emax (yeast agonist assay) is more than 50%.

`COCCNCc1cnc(Nc2cccc(Cl)c2)nc1C(C)C` [Example 9, (3-Chloro-phenyl)-{4-isopropyl-5-[(2-methoxy-ethylamino)-methyl]-pyrimidin-2-yl}-amineformate]: under setting [1], the EC50 was less than 300 nM. In addition, the Emax (yeast agonist assay) is more than 50%.

`FC(F)(F)c1nc(Nc2cccc(Cl)c2)ncc1CNCC1CCCC1` [Example 10, (3-Chlorophenyl){5-[(cyclopentylmethylamino)-methyl]-4 trifluoromethyl-pyrimidin-2-yl}-amine, formate]: the EC50 under setting [1] is less than 300 nM. Moreover, the Emax (yeast agonist assay) is more than 50%.

As to `CC(C)CNCc1cnc(Nc2cccc(Cl)c2)nc1C(F)(F)F` [Example 11, (3-Chlorophenyl){5-[(isobutylamino)-methyl]-4-trifluoromethyl-pyrimidin-2yl}-amine, formate], the concentration giving a half-maximal response (EC50) under setting [1] was less than 300 nM. Besides, for the setting “yeast agonist assay”, the maximal effect (Emax) is more than 50%.

As to `FC(F)(F)c1nc(Nc2cccc(Cl)c2)ncc1CNCC1CCCCC1` [Example 12, (3-Chlorophenyl)-{[5-(cyclohexylmethylamino)-methyl]-4-trifluoromethyl-pyrimidin-2yl}-amine], the Emax was more than 50%. Under setting [1], the EC50 lay in the range of 300 to 1000 nM.

Turning to `Fc1ccc(Nc2ncc(CNCC3CC3)c(C(F)(F)F)n2)cc1Cl` [Example 13, (3-Chloro-4-fluoro-phenyl)-{5-[(cyclopropylmethyl-amino)-methyl]-4-trifluoromethyl-pyrimidin-2-yl}-amine hydrochloride], the EC50 was less than 300 nM and the maximal response (Emax) is more than 50%.

Consider `FC(F)(F)c1nc(Nc2cccc(Cl)c2)ncc1CN1CCOCC1` [Example 14, (3-Chlorophenyl)-(5-morpholin-4-ylmethyl-4-trifluoromethyl-pyrimidin-2-yl)-amine], for which the half-maximal effective concentration (EC50) is less than 300 nM and the maximal effect (Emax) was more than 50%.

`FC(F)(F)c1nc(Nc2cccc(Cl)c2)ncc1CNCC1CCOCC1` [Example 15, (3-Chlorophenyl)-(5-{[(tetrahydro-pyran-4-ylmethyl)-amino]-methyl}-4-trifluoromethyl-pyrimidin-2-yl)-amine,formate]: the EC50 under setting [1] was less than 300 nM. Further, the Emax (yeast agonist assay) is more than 50%.
